# In patent US10385057B2, “Pyrazole compounds and methods of making and using same” (Lundbeck La Jolla Research Center, Inc., priority 2015, dated 2019):
# Legend:
# FAAH = biological target: T1, FAAH (Mus musculus, UniProt O08914); experiment: In vitro competitive activity-based protein profiling, mouse FAAH; format: biochemical; conditions: for inhibition at 1 µM: read-out: FAAH % inh. 1 μM (mouse)
# T1 construct: mouse brain membrane fraction or cell lysates for mouse assays; from tissue
# T1 sequence (O08914 1-579): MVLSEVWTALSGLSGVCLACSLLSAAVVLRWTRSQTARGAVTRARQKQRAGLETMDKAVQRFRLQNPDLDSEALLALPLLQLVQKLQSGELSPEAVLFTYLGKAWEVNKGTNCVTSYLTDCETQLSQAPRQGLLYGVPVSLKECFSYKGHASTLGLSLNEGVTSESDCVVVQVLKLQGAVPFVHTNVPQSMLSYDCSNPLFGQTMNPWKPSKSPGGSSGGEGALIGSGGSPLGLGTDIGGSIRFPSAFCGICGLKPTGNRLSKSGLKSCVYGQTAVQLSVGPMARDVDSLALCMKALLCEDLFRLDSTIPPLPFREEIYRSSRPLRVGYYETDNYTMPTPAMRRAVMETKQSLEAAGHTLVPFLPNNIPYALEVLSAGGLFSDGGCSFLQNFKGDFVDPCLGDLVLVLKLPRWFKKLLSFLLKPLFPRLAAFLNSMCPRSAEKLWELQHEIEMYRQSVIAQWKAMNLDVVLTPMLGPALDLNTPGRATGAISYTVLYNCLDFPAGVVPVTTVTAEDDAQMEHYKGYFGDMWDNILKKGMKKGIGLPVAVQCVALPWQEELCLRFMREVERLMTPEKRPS
# How it was run: (§1)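 Mouse brain membranes or cell lysates (mouse) and human prefrontal cortex or cell membrane fractions (human), 1.0 mg/mL protein, preincubated with inhibitor 30 min at 37 °C, then FP-Rh or HT-01 probe 30 min at 37 °C. SDS-PAGE; MAGL and FAAH activity from in-gel fluorescence band intensity.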
# MAGL = biological target: T2, MAGL (Mus musculus, UniProt O35678); experiment: In vitro competitive activity-based protein profiling, mouse MAGL; format: biochemical; conditions: for inhibition at 1 µM: read-out: MAGL % inh. 1 μM (mouse)
# T2 construct: mouse brain membrane fraction or cell lysates for mouse assays; from tissue
# T2 sequence (O35678 1-303): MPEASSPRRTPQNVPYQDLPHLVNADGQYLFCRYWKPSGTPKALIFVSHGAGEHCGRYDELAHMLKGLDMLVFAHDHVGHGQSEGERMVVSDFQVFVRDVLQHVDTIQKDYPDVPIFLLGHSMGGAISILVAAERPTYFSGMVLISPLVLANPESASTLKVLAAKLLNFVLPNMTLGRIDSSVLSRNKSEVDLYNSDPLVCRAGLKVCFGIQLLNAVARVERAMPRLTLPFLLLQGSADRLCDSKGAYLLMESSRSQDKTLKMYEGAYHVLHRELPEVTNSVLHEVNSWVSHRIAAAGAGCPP
# How it was run: as §1
IC50 (FAAH) [nM],inhibition at 1 µM (FAAH) [%],IC50 (MAGL) [nM],inhibition at 1 µM (MAGL) [%],"inhibition at 10 µM (FAAH; 10 μM, read-out: FAAH % inh. at 10 μM (mouse)) [%]","inhibition at 10 µM (MAGL; 10 μM, read-out: MAGL % inh. at 10 μM (mouse)) [%]",Structure (SMILES)
100 to 1000,≥ 75,1000 to 10000,25 to 50,,,"O=C(c1cnn(C(=O)N2CC3CN(Cc4ccc(Cl)cc4)CC3C2)c1)N1CCCCC1 (centres unmarked) [Example 4, (5-(4-chlorobenzyl)hexahydropyrrolo[3,4-c]pyrrol-2(1H)-yl)(4-(piperidine-1-carbonyl)-1H-pyrazol-1-yl)methanone]"
100 to 1000,≥ 75,100 to 1000,≥ 75,,,"O=C(N1CCC2(CCN(Cc3ccc(Cl)cc3)C2)C1)n1cc(Cl)cn1 (centres unmarked) [Example 115, (4-chloro-1H-pyrazol-1-yl)(7-(4-chlorobenzyl)-2,7-daizaspiro[4.4]nonan-2-yl)methanone]"
≤ 100,≥ 75,100 to 1000,≥ 75,,,"O=C(N1CC2CN(Cc3cccc(Cl)c3)CC2C1)n1cc(C(F)(F)F)cn1 (centres unmarked) [Example 149, (5-(3-chlorobenzyl)hexahydropyrrolo[3,4-c]pyrrol-2(1H)-yl)(4-(trifluoromethyl)-1H-pyrazol-1-yl)methanone]"
,≥ 75,,0 to 25,100,100,"O=C(c1cnn(C(=O)N2CCC3(CCN(Cc4cc(Cl)ccc4Cl)C3)C2)c1)N1CCOCC1 (centres unmarked) [Example 29, (1-(7-(2,5-dichlorobenzyl)-2,7-diazaspiro[4.4]nonane-2-carbonyl)-1H-pyrazol-4-yl)(morpholino)methanone]"

# Further lines, the compound ahead of its results:
Structure (SMILES),IC50 (FAAH) [nM],inhibition at 1 µM (FAAH) [%],IC50 (MAGL) [nM],inhibition at 1 µM (MAGL) [%],"inhibition at 10 µM (FAAH; 10 μM, read-out: FAAH % inh. at 10 μM (mouse)) [%]","inhibition at 10 µM (MAGL; 10 μM, read-out: MAGL % inh. at 10 μM (mouse)) [%]"
"O=C(c1cnn(C(=O)N2CC3CN(Cc4cccc(Oc5ccc(Cl)cc5)c4)CC3C2)c1)N1CCOCC1 (centres unmarked) [Example 199, (5-(3-(4-chlorophenoxy)benzyl)hexahydropyrrolo[3,4-c]pyrrol-2(1H)-yl)(4-(morpholine-4-carbonyl)-1H-pyrazol-1-yl)methanone]",≤ 100,≥ 75,1000 to 10000,25 to 50,,
"CN(Cc1ccc(-c2nccs2)cc1C(F)(F)F)[C@H]1C[C@@H]2CN(C(=O)n3cc(C(N)=O)cn3)C[C@@H]2C1 [Example 224, 1-(trans-5-(methyl(4-(thiazol-2-yl)-2-(trifluoromethyl)benzyl)amino)octahydrocyclopenta[c]pyrrole-2-carbonyl)-1H-pyrazole-4-carboxamide]",,≥ 75,,≥ 75,,
"CN(Cc1ccccc1C(F)(F)F)[C@@H]1C[C@@H]2CN(C(=O)n3cc(C(=O)N4CCCC4)cn3)C[C@@H]2C1 [Example 92, (cis-5-(methyl(2-(trifluoromethyl)benzyl)amino)hexahydrocyclopenta[c]pyrrol-2(1H)-yl)(4-(pyrrolidine-1-carbonyl)-1H-pyrazol-1-yl)methanone]",,≥ 75,,≥ 75,,
"NC(=O)c1cnn(C(=O)N2CCC3(CCN(Cc4ccc(N5CCCC5)cc4Cl)C3)C2)c1 (centres unmarked) [Example 205, 1-(7-(2-chloro-4-(pyrrolidin-1-yl)benzyl)-2,7-diazaspiro[4.4]nonane-2-carbonyl)-1H-pyrazole-4-carboxamide]",,≥ 75,,≥ 75,,
"O=C(c1cnn(C(=O)N2CC3CN(Cc4cccc(C(F)(F)F)c4)CC3C2)c1)N1CCN(C2CC2)CC1 (centres unmarked) [Example 8, (4-cyclopropylpiperazin-1-yl)(1-(5-(3-(trifluoromethyl)benzyl)octahydropyrrolo[3,4-c]pyrrole-2-carbonyl)-1H-pyrazol-4-yl)methanone]",,≥ 75,,≥ 75,,
"O=C(N1C[C@H]2C[C@@H](NCc3ccc(Cl)cc3)C[C@H]2C1)n1cc(Cl)cn1 [Example 71, (4-chloro-1H-pyrazol-1-yl)(cis-5-((4-chlorobenzyl)amino)hexahydrocyclopenta[c]pyrrol-2(1H)-yl)methanone]",100 to 1000,≥ 75,100 to 1000,≥ 75,,
